Peptide text beside a SMILES is read from it.

With `CC1NC(=O)C(CC(=O)NC(Cc2c[nH]c3ccccc23)C(=O)NC(Cc2ccccc2)C(=O)N(C)Cc2ccccc2)NC1=O` (configuration not stated), the logP – broadly, a log measure of how a compound divides between an organic and an aqueous phase – worked out at 3.18. In turn, `O=[N+]([O-])C=Cc1ccoc1` came in with a logP of 1.41. On to `Cc1ccc(N)c(C)c1`, for which the logP came to 1.68. In turn, `CN(C)C(=O)OCc1ccc(C(F)(F)F)cc1` showed a logP of 3.08. `Cc1cc2ccccc2cn1` displayed a logP of 2.68. Under `O=C(OCn1ncc2c(=O)[nH]cnc21)c1cccc(CN2CCOCC2)c1` stands 1.13; under `Nc1nc(N)nc(-c2cccc(C(F)(F)F)c2)n1`, 2.67. `Cc1c2ccccc2c(C)c2c1ccc1ccccc12` had a logP of 5.8. `CCN(CC)N=Nc1ccc(S(C)(=O)=O)cc1` displayed a logP of 2.6. `NC(=O)c1cccc2[nH]ccc12` had a logP of 0.66.

`N[C@@H](CS)C(=O)O` registered a logP of -2.49. In the case of `NCc1cccnc1`, the logP was -0.32. The compound `CC(=O)c1ccc(Br)cc1` displayed a logP of 2.43. Compound `O=C(O)c1cccc(Br)c1` returned a logP of 2.87.

For `COc1ccc(N(C)C)cc1`, the logP was 1.42. Compound `CC(C)COC(=O)c1ccccc1C(=O)OCC(C)C` gave a logP of 4.11. The result for `Nc1ccc(S(=O)(=O)Nc2ccc(S(N)(=O)=O)cc2)cc1` reads 0.35; that for `CCCCC(=O)c1ccc[nH]1`, 2.42. As to `COC(=O)CNC(=O)c1ccc(N)cc1`, the log partition coefficient (logP) was -0.23.

Regarding `Nc1cc(Cl)c(Cl)cc1N`, the logP worked out at 2. Under `Clc1ccc(Cl)c(-c2cc(Cl)ccc2Cl)c1` stands 6.09; under `c1ccc(Nc2ccccc2)cc1`, 3.5; under `CN(C)C(=O)Nc1ccc(C2CCCCC2)cc1`, 3.83.

Consider `N#CCC(=O)NC(CO)C(O)c1ccc([N+](=O)[O-])cc1` (configuration not stated), for which the logP is -0.22. As to `CCN(CC)N=Nc1ccc(C(N)=O)cc1`, the log partition coefficient (logP) came out at 2.26. On to `COP(=O)(NC(C)=O)SC` (configuration not stated), for which the logP was -0.85. Take `COP(=S)(OC)Oc1ccc([N+](=O)[O-])c(Cl)c1`: the logP amounted to 3.45. The result for `Cc1cccnc1` reads 1.2.

Compound `NC(=O)c1cccc(C(N)=O)c1` yielded a logP of -0.21.

In turn, `CN(C)CCN1C(=O)c2ccccc2N(C)c2ccccc21` displayed a logP of 2.5. `CCCCc1cccc(OCC(=O)O)c1` had a logP of 3.18. For `CCC(=O)c1ccccc1O`, the logP amounted to 2.54. The result for `CN(C)CC/C=C1\c2ccccc2Sc2ccc(Cl)cc21` reads 5.18; that for `CC(=O)N[C@@H](C)C(=O)N[C@@H](Cc1ccc(O)cc1)C(=O)N[C@@H](CC(C)C)C(N)=O` (Ac-Ala-Tyr-Leu-NH2), -0.04; that for `CCOC(=O)C(=Cc1ccc(OC)cc1)C(C)=O`, 2.46. Compound `Cc1n[nH]c(C(=O)N(C)Cc2ccccc2)c1[N+](=O)[O-]` gave a logP of 1.65.

`CNc1nc(C)nc2c1ncn2[C@@H]1O[C@H](CO)C[C@@H]1F` registered a logP of 0.64. `CC12C=CC(=O)C=C1CCC1C2C(O)CC2(C)C1CCC2(O)C(=O)COC1OC(CO)C(O)C(O)C1O` (configuration not stated) had a logP of 0.27. On to `N#CC#N`, for which the logP worked out at 0.07. Under `BrC(Br)(Br)Br` stands 3.42; under `CN(C)Cc1ccccc1`, 1.98.

`Nc1cccc(OC(=O)c2ccc(N)cc2O)c1`: the logP turned out to be 2.08.

Compound `CCN(CC)N=O` displayed a logP of 0.48. In turn, `CC(=O)N[C@@H](CC(C)C)C(=O)N[C@H](C(N)=O)C(C)C` (Ac-Leu-Val-NH2) displayed a logP of 0.26. The result for `CC(O)CN` (configuration not stated) reads -0.96; that for `CC(C)c1ccccc1N`, 2.12; that for `NS(=O)(=O)c1nc2ccc(Cl)cc2s1`, 2.1. Take `COc1ccc(NC(=O)NN=Cc2ccc[nH]2)cc1`: the logP worked out at 2.67. In turn, `Nc1ncccn1` showed a logP of -0.22. Compound `OCCCCc1ccccn1` had a logP of 0.86. Regarding `O=NN(CCCl)C(=O)NC1CC2CCC1C2` (configuration not stated), the logP was 2.98. In turn, `Cc1ccc(C(=O)NN)cc1` had a logP of 0.72. `CCC(=O)Nc1ccnc2cc(Cl)ccc12` gave a logP of 2.73. The result for `CC(=O)O[C@]1(C(C)=O)CC[C@H]2[C@@H]3C[C@H](C)C4=CC(=O)C=C[C@]4(C)[C@@]3(F)[C@@H](O)C[C@@]21C` reads 1.5; that for `CCCC(=NOCC)C1C(=O)CC2(CC(C)CC(C)C2)OC1=O` (configuration not stated), 4.48; that for `CCOc1ccc(S(I)=C(N(C)C)N(C)C)cc1` (configuration not stated), -0.06. The compound `CNC(=O)Oc1cccc2ccccc12` returned a logP of 2.36. The compound `O=C1CN=C(c2ccccc2)c2cc(F)ccc2N1` came in with a lipophilicity (logP) of 2.32.

With `Nc1ccc(S(=O)(=O)Nc2ccc(Cl)cc2)cc1`, the logP stood at 2.71. `CC(C)C(C)C` registered a logP of 3.42. Turning to `COc1ccc(OC)c(CC(C)N)c1` (configuration not stated), the lipophilicity (logP) was 1.72. As for `NNC(=O)c1cccc(Br)c1`, the logP came out at 1.26. Under `CCOc1c(NS(=O)(=O)c2ccc(N)cc2)ncnc1OC` stands 1.03; under `COC(=O)CCCC(=O)OC`, 0.62; under `Cn1c(=O)ccc2ccccc21`, 1.45. Compound `CN1CCN(C2=Nc3cc(Cl)ccc3Nc3ccccc32)CC1` showed a logP of 3.23. Turning to `NCCC(N)C(=O)O` (configuration not stated), the logP was -4.64.

Compound `CCCCCC(C)(C)c1ccc(C2CCCC(O)C2)c(O)c1` (configuration not stated) showed a logP of 5.97. Compound `NC(=O)c1cccnc1` yielded a logP of -0.37. In turn, `c1cncc(CCN2CCCC2)c1` displayed a logP of 1.34. `CC(=C(C#N)C#N)c1ccccc1` yielded a logP of 2.1.

Take `CNCCN(C)C`: the logP was -0.2.

Compound `COc1ccc(CC#N)cc1OC` yielded a logP of 1.15. Under `CCN(C(=O)SCc1ccccc1)C(C)C(C)C` (configuration not stated) stands 4.6; under `CC(C)c1cc(Oc2ccccc2)cc(C(C)C)c1NC(=S)NC(C)(C)C`, 6; under `COc1ccccc1O`, 1.32.

The compound `CCc1ccc(O)cc1` showed a logP of 2.58.

`O=c1ccn(C2OC(CO)C(O)C2O)c(=O)[nH]1` (configuration not stated): the logP is -1.98. Take `CNCc1cccnc1`: the logP came out at 0.39. In turn, `COc1ccc(NS(=O)(=O)c2ccc(N)cc2)cc1` had a logP of 1.51.

Consider `COP(=O)(OC)O/C(C)=C/C(=O)N(C)C`, for which the logP was found to be 0. In turn, `O=c1cnn(C2OC(CO)C(O)C2O)c(=O)[nH]1` (configuration not stated) registered a log partition coefficient (logP) of -2.14. In the case of `Cc1ccccc1C(O)c1ccccc1` (configuration not stated), the logP came out at 3.06.

In turn, `O=[N+]([O-])c1ccccc1SSc1ccccc1[N+](=O)[O-]` yielded a logP of 3.37. Compound `NC(=O)c1cc([N+](=O)[O-])cc([N+](=O)[O-])c1` yielded a logP of 0.83. The compound `O=C(O)COc1cccc(Br)c1` came in with a logP of 2.22. In turn, `O=S(=O)(O)c1cc(O)c2ccccc2c1` came in with a log partition coefficient (logP) of -0.18. Compound `C=CCCCCC` came in with a logP of 3.99. Under `CCCC(=NOCC)C1C(=O)CC2(CCCCC2C)OC1=O` (configuration not stated) stands 3.9; under `CCOCCCl`, 0.98; under `OCc1cccs1`, 0.87. `COP(=O)(OC)OC`: the logP was -0.65. In the case of `CC(C)=CC1C(C(=O)OCN2C(=O)C3=C(CCCC3)C2=O)C1(C)C` (configuration not stated), the logP came to 4.73. For `CCOCc1ccccc1NC(=O)OCCN1CCCCC1`, the logP stood at 2.72. Compound `CCOC(=O)C(=Cc1cccc(OC)c1)C(C)=O` showed a logP of 2.34. `Nc1ccc2[nH]ccc2c1` registered a logP of 0.7. As to `Cc1cccc(S(N)(=O)=O)c1`, the logP came out at 0.85. Compound `CC(=O)c1cnc2ccccc2c1` had a logP of 1.76. The result for `Oc1c(Cl)cc(Cl)c(Cl)c1Cc1c(O)c(Cl)cc(Cl)c1Cl` reads 7.54; that for `Cn1ccnc1`, -0.06.

With `C#CCC(O)c1cccnc1` (configuration not stated), the logP is 1.21.

`CN[C@H]1CCc2cc(OC)c(OC)c(OC)c2-c2ccc(OC)c(=O)cc21`: the logP stood at 1.37. For the compound `C[C@]12CCC(=O)C=C1CC[C@@H]1[C@@H]2CC[C@@]2(C)[C@H]1CC[C@]2(C)O`, the logP stood at 3.36. The result for `Clc1cccc(Cl)n1` reads 2.15; that for `CN1CCC=C1c1cccnc1`, 1.13; that for `COc1cc(OC)cc(C(=O)O)c1`, 2.19.

As to `CCCSCS(=O)CC(CO)NC(=O)C=Cc1c(C)[nH]c(=O)[nH]c1=O` (configuration not stated), the logP is -0.67. Compound `O=[N+]([O-])c1ccc(O)c([N+](=O)[O-])c1` had a logP of 1.67.

Consider `COC(=O)c1cnc2ccccc2c1`, for which the logP turned out to be 2.25.

In turn, `COc1ccccc1C(=O)NCCN(C)C` displayed a logP of 1.14.

Take `CC(=O)Nc1nccs1`: the logP came out at 0.76.

Regarding `COc1cccc(C(=O)NC2CC3CCC(C2)N3Cc2ccccc2)c1OC` (configuration not stated), the log partition coefficient (logP) was determined as 3.24. As for `COc1ccc(C(=O)O)cc1`, the lipophilicity (logP) turned out to be 1.96.

In turn, `CC(=O)c1ccc(C#N)cc1` had a logP of 1.22. Under `CCN1CC(C(O)C(CC2CCCCC2)NC(=O)C(Cc2cnc[nH]2)NC(=O)C(CC(=O)N2CC(OCOC)C(OCOC)C2)Cc2ccccc2)OC1=O` (configuration not stated) stands 2.31. Under `CCC(C)CC(=O)OCC1CCC(n2cnc3c(=O)[nH]cnc32)O1` (configuration not stated) stands 1; under `COC(=O)c1cnc2n(c1=O)C(C(C)C)CCC2` (configuration not stated), 0.99.

In the case of `CCCCC1C(=O)NC(=O)NC1=O`, the logP amounted to 0.77. In turn, `NC(=O)Nc1ccc(C(O)C(CO)NC(=O)C(Cl)Cl)cc1` (configuration not stated) registered a logP of -0.6. `CN(Cc1cnc2nc(N)nc(N)c2n1)c1c(Cl)cc(C(=O)N[C@@H](CCC(=O)O)C(=O)O)cc1Cl` returned a logP of -0.1. The result for `CCCCCCCN` reads 2.57; that for `CC(=O)Nc1ccccc1Cl`, 1.28. Turning to `CCCCF`, the logP was 2.58. Regarding `Cc1ccc2ccccc2n1`, the logP came out at 2.59. On to `Cn1cc2ccc([N+](=O)[O-])cc2n1`, for which the logP was found to be 1.76.

Compound `Fc1cccc(CCl)c1` displayed a logP of 2.77. Under `CN` stands -0.57; under `O=C(O)CSCc1ccccc1`, 2.1; under `CNC(=O)Oc1ccc(C(C)C)cc1`, 2.57. In turn, `O=[N+]([O-])c1cccc(O)c1` registered a logP of 2.

As for `[N-]=[N+]=Nc1ccccc1`, the logP was 2.59.

`N#Cc1cccc(C(=O)O)c1` gave a log partition coefficient (logP) of 1.48.

The values above are taken from the OPERA property sets (Mansouri et al. 2018).
